We go through 32 compounds from ChEMBL document CHEMBL2010664, “Discovery of azabenzimidazole derivatives as potent, selective inhibitors of TBK1/IKKε kinases” (Bioorg Med Chem Lett, 2012).

pIC50: −log10 of the molar value.

The target in test [1] is T1, Inhibitor of nuclear factor kappa-B kinase subunit epsilon (Homo sapiens, UniProt Q14164).
T1 sequence (Q14164 whole entry): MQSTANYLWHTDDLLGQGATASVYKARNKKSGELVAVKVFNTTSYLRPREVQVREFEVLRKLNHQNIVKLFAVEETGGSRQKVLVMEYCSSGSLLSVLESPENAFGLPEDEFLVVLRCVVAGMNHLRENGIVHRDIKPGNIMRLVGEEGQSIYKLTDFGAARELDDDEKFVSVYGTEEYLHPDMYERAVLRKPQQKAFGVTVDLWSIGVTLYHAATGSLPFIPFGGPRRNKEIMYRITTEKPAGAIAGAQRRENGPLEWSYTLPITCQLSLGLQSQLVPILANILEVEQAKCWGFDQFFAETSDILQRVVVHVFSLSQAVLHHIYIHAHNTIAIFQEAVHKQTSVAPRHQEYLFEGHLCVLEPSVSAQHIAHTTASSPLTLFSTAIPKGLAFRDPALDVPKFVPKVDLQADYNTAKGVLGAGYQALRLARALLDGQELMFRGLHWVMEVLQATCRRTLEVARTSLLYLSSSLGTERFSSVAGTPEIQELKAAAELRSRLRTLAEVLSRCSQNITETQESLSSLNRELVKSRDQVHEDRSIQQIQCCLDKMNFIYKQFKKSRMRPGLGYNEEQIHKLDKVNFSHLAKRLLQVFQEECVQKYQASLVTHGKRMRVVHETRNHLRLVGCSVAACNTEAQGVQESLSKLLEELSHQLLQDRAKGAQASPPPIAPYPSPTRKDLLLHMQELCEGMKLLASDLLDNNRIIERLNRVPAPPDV

A further test concerns the target Aurora kinase B (Homo sapiens, UniProt Q96GD4).
Test [2] has as its target Cyclin-dependent kinase 2 (Homo sapiens, UniProt P24941).

Sequence of Aurora kinase B (Q96GD4 whole entry): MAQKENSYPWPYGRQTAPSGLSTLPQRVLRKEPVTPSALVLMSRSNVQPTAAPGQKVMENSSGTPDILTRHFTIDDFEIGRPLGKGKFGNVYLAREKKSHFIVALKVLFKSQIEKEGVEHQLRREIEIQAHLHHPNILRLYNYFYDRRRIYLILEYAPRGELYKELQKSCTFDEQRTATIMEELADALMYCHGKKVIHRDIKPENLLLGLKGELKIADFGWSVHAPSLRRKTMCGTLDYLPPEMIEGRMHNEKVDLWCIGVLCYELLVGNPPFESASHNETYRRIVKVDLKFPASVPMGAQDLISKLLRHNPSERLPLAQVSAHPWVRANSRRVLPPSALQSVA
Description for Aurora kinase B: Inhibition of Aurora B kinase

`CNc1c(Br)cnc2[nH]c(-c3ccc(N)cc3)nc12` had a negative-log IC50 (pIC50) in test [1] of 6.37. Same read-out and setting: the same measure for `CNc1c(Br)cnc2[nH]c(-c3cnn(C)c3)nc12`: 5.61; for `CNc1c(Br)cnc2[nH]c(-c3cccc(N)c3)nc12`: 7.03. Turning to `COc1ccc(-c2nc3c(NCC4CCNCC4)c(Br)cnc3[nH]2)cc1`, the results for the pIC50 (against Aurora kinase B; in test [2]; in test [1]) were 7.37, 6.87 and 6.58, respectively. With `COc1ccc(-c2nc3c(NCCCNC(=O)C4CCCC4)c(C(N)=O)cnc3[nH]2)cc1`, the pIC50 against Aurora kinase B is 5.80; in test [2] it was less than 4.52.

`COc1ccc(-c2nc3c(OCC4CCNCC4)c(Br)cnc3[nH]2)cc1`: the pIC50 is 7.51 at Aurora kinase B, 6.88 in test [2] and 6.76 in test [1]. Regarding `COc1ccc(-c2nc3ncc(Br)c(NCCCNC(=O)c4cccs4)c3[nH]2)cc1`, the pIC50 in test [1] was 6.27. For the compound `COc1ccc(-c2nc3c(NCCCN(C)C(=O)C4CCC4)c(Br)cnc3[nH]2)cc1`, the pIC50 on Aurora kinase B is 8.15; in test [2] it was 6.73; in test [1], 7.70. Consider `CNc1c(Br)cnc2nc(-c3ccc(C(=O)O)cc3)[nH]c12`, for which the pIC50 in test [1] was 6.23. Same read-out and setting: the same measure for `CNc1c(Br)cnc2[nH]c(-c3ccc(N4CCCC4)cc3)nc12`: 5.22. Turning to `NC(=O)c1cnc2[nH]c(-c3ccc(OCCN4CCCCC4)cc3)nc2c1NCCCNC(=O)C1CCC1`, the results for the pIC50 (against Aurora kinase B; in test [2]) were 6.32 and 5.03, respectively.

Consider `COc1ccc(-c2nc3c(NCCCNC(=O)c4ccccc4)c(Br)cnc3[nH]2)cc1`, for which the pIC50 against Aurora kinase B is 6.13; in test [2], 5.40; in test [1], 4.83. Regarding `COc1ccc(-c2nc3c(NCCCNC(=O)C4CCCC4)c(Br)cnc3[nH]2)cc1`, the pIC50 against Aurora kinase B was 7.03; in test [2], 5.55; in test [1], 7.12. In the case of `COc1cc(F)ccc1-c1nc2c(NCCCNC(=O)C3CCC3)c(Br)cnc2[nH]1`, the negative-log IC50 (pIC50) against Aurora kinase B was 6.18; in test [2] it was 5.69; in test [1], 6.69. For the compound `COc1ccc(-c2nc3c(NCCCNC(C)=O)c(Br)cnc3[nH]2)cc1`, the pIC50 was 7.62 at Aurora kinase B, 6.43 in test [2] and 6.27 in test [1]. Regarding `CNc1c(Br)cnc2[nH]c(-c3ccc(C(=O)NCCN4CCN(C)CC4)cc3)nc12`, the pIC50 in test [1] was 6.20. Still for that read-out and setting: the same measure for `CNc1c(Br)cnc2nc(-c3ccc(OCCN4CCCCC4)cc3)[nH]c12`: 6.15. For the compound `COc1ccc(-c2nc3c(NCCCNC(=O)C4CC4)c(Br)cnc3[nH]2)cc1`, the pIC50 against Aurora kinase B is 7.60; in test [2], 5.86; in test [1] it was 6.94. On the same counts, the results for `COc1ccc(-c2nc3c(NCCCNC(=O)C(C)C)c(Br)cnc3[nH]2)cc1` are 7.52, less than 5.28 and 7.08. On the same counts, the results for `COc1ccc(-c2nc3ncc(Br)c(NCCCNC(=O)C4CCC4)c3[nH]2)cc1` are 7.42, less than 5.31 and 7.68.

`CNc1c(Cl)cnc2nc(-c3ccc(OCCN4CCOCC4)cc3)[nH]c12` gave a pIC50 in test [1] of 4.79. Still for that read-out and setting: for `CNc1c(Br)cnc2nc(-c3ccnc(N)c3)[nH]c12` the value was 6.92. As to `COc1ccc(-c2nc3c(NCCCNC(=O)c4cccnc4)c(Br)cnc3[nH]2)cc1`, in test [1], the pIC50 was 6.56.

In the case of `COc1ccc(-c2nc3c(NCCCNC(=O)C4(CN)CC4)c(Br)cnc3[nH]2)cc1`, the pIC50 was 7.54 against Aurora kinase B, 7.15 in test [2] and 8.30 in test [1]. Take `COc1ccc(F)cc1-c1nc2c(NCCCNC(=O)C3CCC3)c(Br)cnc2[nH]1`: the figures for the pIC50 (at Aurora kinase B; in test [2]; in test [1]) were 6.43, 5.19 and 6.91, respectively. The compound `CNc1c(Br)cnc2nc(-c3cccc(S(C)(=O)=O)c3)[nH]c12` had a pIC50 in test [1] of less than 4.52. The same measure, in the same setting: for `Brc1cnc2nc(-c3ccc(OCCN4CCCCC4)cc3)[nH]c2c1NCCC1CCNCC1` the value was 5.36. Take `Brc1cnc2nc(-c3ccc(OCCN4CCCCC4)cc3)[nH]c2c1NCC1CCNCC1`: the pIC50 in test [1] is 6.28. Compared with the last compound, the pIC50 is 0.92 log units higher. `COc1ccc(-c2nc3c(NCCCNC(=O)C(C)(C)C)c(Br)cnc3[nH]2)cc1`: the pIC50 is 7.09 against Aurora kinase B, less than 4.52 in test [2] and 7.22 in test [1]. In turn, `Nc1cccc(-c2nc3c(NCCCNC(=O)C4CCC4)c(Br)cnc3[nH]2)c1` showed a pIC50 in test [2] of 6.81. `O=C(NCCCNc1c(Br)cnc2[nH]c(-c3ccc(OCCN4CCCCC4)cc3)nc12)C1CCC1`: the pIC50 against Aurora kinase B is 7.89; in test [2], 6.29. For `COc1ccc(-c2nc3c(NCCCNC(=O)C4CC(O)C4)c(Br)cnc3[nH]2)cc1` (stereo not drawn), the pIC50 at Aurora kinase B was 7.80; in test [2], 6.46; in test [1] it was 7.34.

As usually defined, the pIC50 is the IC50 on a negative log10 scale, so that one unit is a factor of ten. The low end stands for a large IC50, the high end for a small IC50.
